Tests used:
[1] = solubility of acetylsalicylic acid in water; format: physicochemical
From the text: In preparing the composition, it can be helpful to gently warm while stirring the solvent mixture to assist the acetylsalicylic acid in completely dissolving in the solvent mixture. It has been observed that the typical consumer tends to prefer a product that is homogeneous in appearance and without any visible precipitate. […] Thus, aloe vera, for example, while it is soothing to the skin, tends to quickly hydrolyze acetylsalicylic acid. The hydrolysis of the acetylsalicylic acid would substantially and undesirably shorten the shelf life of the product.

[2] = saturation concentration of acetylsalicylic acid in the solvent mixture; format: physicochemical; settings: solvent mixture: propylene glycol about 10% by volume, glycerine about 2 percent by volume, balance isopropyl alcohol/water solution with isopropyl alcohol about 70% by volume

## CC(=O)Oc1ccccc1C(=O)O [acetylsalicylic acid]
[1]
  solubility in water or water based substances: virtually insoluble
[2]
  saturation concentration of the acetylsalicylic acid in this solvent mixture: about 18 % by weight per unit volume
